Laboratory results published in patent US6531499B2, “Matrix metalloproteinase inhibitors and method of using same” (Wisconsin Alumni Research Foundation, priority 1999, dated 2003).

How the values were obtained:
HiMel cells = assay: In vitro invasion assay: HiMel cell penetration of […] (Transwell); format: cell-based, human; details: same assay as Example 3; concentration not given
Text: An 8 μm pore filter coated with “[…]” separates a series of lower compartments containing a chemoattractant and a corresponding series of upper compartments containing metastatic and non-metastatic cells and a compound to be tested. The metastatic cells are able to degrade the “[…]” barrier and, over a period of time, migrate through the pores of the filter whereas non-metastatic cells remain on the upper surface. The cells that pass to the underside of the filter are counted under a microscope to determine the extent to which they are able to pass from the upper compartment into the lower compartment. […]
This method has been refined to increase the number of assays which may be performed and analyzed per day. […] Motility of the cells through the 8 μm filters is not by passive diffusion since the pore size is smaller than the cells, and is determined in the same chamber in the absence of “[…]”. […]
Compounds to be tested were dissolved in DMSO and were added in serial dilutions of 0 (control) 1, and 10 μM. […] Invasive cells found on the under side of the filter were measured by solubilizing the stain in 10% acetic acid 20% methanol and reading the absorbance at 595 nm.

F442A fibroblast = format: cell-based; details: concentrations up to 100 μM; 6 to 24 hours in serum-free medium
Protocol: Toxicity of the compounds was determined by incubating several log doses of the compound and solvent controls for 6 to 24 hours in serum-free medium. The cell number was then determined by comparing the absorbance of crystal violet with controls, and cell death determined by trypan blue dye exclusion in conventional and well known fashion. The model cell line used was a murine fibroblast cell line designated F442A, which was generously provided by Dr. Howard Green of Harvard University.
The compounds were cleaved from the beads into a single solution and tested in this combined fashion.

MMP-2 = target: T1, MMP-2 (Homo sapiens, UniProt P08253); assay: Colorimetric 96-well thiopeptolide collagenase assay; format: biochemical; details: change in absorbance at 405 nm
T1 sequence (P08253 110-660): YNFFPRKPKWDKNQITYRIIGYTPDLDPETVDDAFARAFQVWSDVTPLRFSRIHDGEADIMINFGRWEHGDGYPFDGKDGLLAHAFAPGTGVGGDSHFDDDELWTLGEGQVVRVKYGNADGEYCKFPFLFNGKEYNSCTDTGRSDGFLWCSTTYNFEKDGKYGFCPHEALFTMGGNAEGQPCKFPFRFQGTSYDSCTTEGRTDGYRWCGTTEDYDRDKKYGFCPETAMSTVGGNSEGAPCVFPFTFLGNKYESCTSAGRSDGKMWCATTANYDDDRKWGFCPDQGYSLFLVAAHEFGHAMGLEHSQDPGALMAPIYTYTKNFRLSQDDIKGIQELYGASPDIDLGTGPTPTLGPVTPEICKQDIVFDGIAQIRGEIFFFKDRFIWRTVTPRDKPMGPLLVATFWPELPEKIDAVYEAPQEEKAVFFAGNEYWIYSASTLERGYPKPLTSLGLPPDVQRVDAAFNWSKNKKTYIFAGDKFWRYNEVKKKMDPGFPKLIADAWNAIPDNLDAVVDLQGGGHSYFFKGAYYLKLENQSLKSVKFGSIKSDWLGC
Protocol: The preferred assay method to measure MMP inhibitory activity is a colorimetric assay which can be monitored spectrophotometrically. Specifically, the ability of the subject matrix metalloproteinase inhibitors to suppress MMP-2 or MMP-9 activity is assessed using a colorimetric 96-well thiopeptolide collagenase assay as described by Xia et al. (Xia T, Akers K, Eisen A Z and Seltzer J L. (1996) Biochim et Biophy Acta. 1293:259). This protocol entails the cleavage of a thiopeptolide substrate AcProLeuGly-S-LeuGlyOC2H5 (Bachem Bioscience, Cat # H7145) by MMP-2 or MMP-9, giving a free sulfhydryl group. The free —SH then reacts with DTNB (Ellman's reagent, 5,5′-dithio-bis(2-nitrobenzoic acid)) giving a colored molecule whose formation can be examined spectrophotometrically at 405 nm.
The thiopeptolide substrate (5 μL/well, 5 mM in DMF), DTNB (15 μL/well, 10 mM in 50 mM HEPES, 10 mM CaCl2, pH 6.92), and matrix metalloproteinase inhibitors or DMSO (total volume equal to 5 μL/well) are mixed in a 96-well plate (Falcon). A single row of wells is used for each matrix metalloproteinase inhibitor and various inhibitor concentrations are used to control for row to row variation in collagenase activity. The reaction is then initiated by pipeting 130 μL of a solution of collagenase buffer (126 μL/well, 50 mM HEPES, 10 mM CaCl2, pH 6.92) and activated MMP-2 or MMP-9 (4 μL/well, 0.05 M borate, pH 7.46, 5 mM CaCl2 , 20% glycerol, 0.0005% Brij-35) into a row of wells using a 12-channel multipipeter. The change in absorbance from 0-20 minutes is then monitored at 405 nm using an ELX 800 automated microplate reader (Bio-Tek Instruments, Inc., Winooski, Vt.). The change in absorbance is calculated and graphed.
The thiopeptolide substrate AcProLeuGly-S-LeuGlyOC2H5 (5 μL/well, 5 mM in DMF), DTNB (15 μL/well, 10 mM in 50 mM HEPES, 10 mM CaCl2, pH 6.92), and matrix metalloproteinase inhibitors or DMSO (total volume equal to 5 μL/well) were mixed in a 96-well plate. A single row of wells was used for each concentration of the test compound and concentrations of 10, 20, and 40 μM of the test compound were used. The reaction was then initiated by pipeting 130 μL of a solution of collagenase buffer (126 μL/well, 50 mM HEPES, 10 mM CaCl2, pH 6.92) and activated MMP-2 (4 μL/well, 0.05 M borate, pH 7.46, 5 mM CaCl2, 20% glycerol, 0.0005% Brij-35) into a row of wells using a 12-channel multipipeter. The change in absorbance from 0-20 minutes was then monitored at 405 nm. The change in absorbance was calculated and graphed; the results are depicted in FIG. 4.

[1] = 0 (control), 40, 80, and 160 μM

Row | Compound | inhibition of HiMel MATRIGEL invasion as compared to the control (HiMel cells) | effect on the growth / viability of fibroblasts (F442A fibroblast) | inhibition of MMP-2 collagenase activity (MMP-2; 10, 20, and 40 μM, 0-20 minutes) | inhibition of MMP-2 collagenase activity (MMP-2; [1])
1 | O=C(CN(Cc1ccccc1)C(=O)CN(CCCc1ccccc1)C(=O)Nc1ccc(Oc2ccccc2)cc1)NO | approximately 50% | no significant effect | inhibited MMP-2 collagenase activity in a dose-dependent manner | –
2 | O=C(CN(CCCCc1ccccc1)C(=O)CN(CCCc1ccccc1)C(=O)Nc1ccc(Oc2ccccc2)cc1)NO | – | no significant effect | – | inhibits MMP-2 collagenase activity in a dose-dependent fashion
3 | NC(=O)CN(Cc1ccccc1)C(=O)CN(CCCc1ccccc1)C(=O)Nc1ccc(Oc2ccccc2)cc1 | – | – | – | inhibits MMP-2 collagenase activity in a dose-dependent fashion
4 | O=C(Nc1ccc(Oc2ccccc2)cc1)Nc1ccc(Oc2ccccc2)cc1 | – | – | – | inhibits MMP-2 collagenase activity in a dose-dependent fashion
5 | O=C(Nc1ccc(Oc2ccccc2)cc1)Nc1ccc(-c2ccccc2)cc1 | approximately 50% | – | – | inhibits MMP-2 collagenase activity in a dose-dependent fashion
